Earlier results in PMC11372459 (Acta Pharmaceutica Sinica. B, 2024).

Tested on: Gram-positive bacteria

Substance: Nisin (ITSISLCTPGCKTGALMGCNMKTATCHCSIHVSK; not fully specified; Lantibiotic nisin-A; UniProt P13068 24-57, looked up)
- antibacterial spectrum: specific activity against Gram-positive bacteria
